Patent US5120730A, “Benzothiazepine esters, their preparation and formulations for therapeutic use” (IdB Holding SpA, priority 1990, dated 1992)
Entries after “also recorded” stand apart in the source; their conditions may differ. Where two headings read alike, the source gives them in different places.

What was measured:
[1] = rats
Source text: (§1) Sprague-Dawley rats of both sexes (5 male+5 female) were used for each experimental group.

[2] = system: isolated guinea pig atria; experiment: Isolated guinea pig atria: force and frequency of spontaneous contractions; set-up: species or system guinea pig (Hartley-Dunkin); conditions: for inhibition at 10 µM / activation at 10 µM / IC25: Cavia porcellus; for inhibition at 10 µM: read-out: negative chronotropic effect; for activation at 10 µM: read-out: positive inotropic effect; for activity on force and frequency of the contractions (in words) / IC25: isolated guinea pig atria; for IC25: n = 6
Protocol: 1. The atria taken from Hartley-Dunkin guinea pigs of average weight 400-450 g were placed in an isolated organ bath of 15 ml containing a physiological Krebs solution (J. C. Doxey et al., Br. J. Pharmac. 78, 498, 1983) at a temperature of 30°±0.5° and oxygenated by means of a gaseous mixture composed of 95% of O2 and 5% of CO2. The force and frequency of the spontaneous contractions (T. De Gubareff and W. Sleaton Jr., J. Pharm. Exp. Ther., 148, 202, 1965) were recorded by means of an isometric force transducer. The concentration of product required to reduce the contraction force and frequency by 25% (IC25) and the relevant pIC25 were calculated.

isolated rat portal vein = experiment: Isolated rat portal vein: force of spontaneous contraction; set-up: species or system rat (Sprague-Dawley); conditions: for selectivity, isolated vessels vs atria (in words): comparison of rat portal vein with guinea pig atria; for inhibition of contraction force (in words) / IC50: isolated rat portal vein; for IC50: 50% reduction of contraction force, n = 6, read-out: Contraction force pIC50 (converted)
Source text: 2. 2-3 cm strips of portal vein were taken from Sprague-Dawley rats of 220-250 g weight.

in vivo = conditions: rat
Source text: as §1

[3] = Haemodynamics in anaesthetized rats; assay type: in vivo, rat (Sprague-Dawley); conditions: for change in BP (systemic arterial pressure) / change in HR (heart rate) / change in LVP (left intraventricular pressure) / change in dp/dt: n = 6
Protocol: Male Sprague-Dawley rats of average weight 350-400 g, anaesthetized with sodium pentobarbital in an intraperitoneal dose of 60 mg/kg, underwent cannulation for measuring the following parameters: systemic arterial pressure (BP), heart rate (HR) left intraventricular pressure (LVP) and dp/dt.
After recording of the baseline values, the substances were injected by the intravenous route within a time of 30 seconds. The changes in the parameters indicated above were measured at times of 0.5-2-10 and 20 minutes.

COc1ccc([C@@H]2Sc3ccccc3N(CCN(C)C)C(=O)[C@@H]2OC(=O)CCC(=O)O[C@H]2C(=O)N(CCN(C)C)c3ccccc3S[C@H]2c2ccc(OC)cc2)cc1 (relative stereo) [Ib, 3,3'-[(1,4-dioxo-1,4-butanediyl)-bis(oxy)] bis[(+)-cis-5-[2-(dimethylamino)ethyl]-2,3-dihydro-2-(4-methoxyphenyl)-1,5-benzothiazepin-4(5H)-one]]
toxicity versus diltiazem, intraperitoneal (in words) [1]: less toxic than the reference product
toxicity versus diltiazem, oral (in words) [1]: LD50 comparable with that of diltiazem
inhibition at 10 µM [2]: 5%
activation at 10 µM [2]: 12%
activity on force and frequency of the contractions (in words) [2]: virtually inactive; also recorded: free of the negative chronotropic and inotropic effects
selectivity, isolated vessels vs atria (in words) (isolated rat portal vein): selective activity on the isolated vessels
inhibition of contraction force (in words) (isolated rat portal vein): antagonize the contraction force in a dose-dependent manner; also recorded: significantly inhibit the contraction force
IC50 (isolated rat portal vein): 2340 nM
LD50 at 336 h (in vivo; ip): 600 mg/kg
LD50 at 336 h (in vivo; po): 881 mg/kg

COc1ccc([C@@H]2Sc3ccccc3N(CCN(C)C)C(=O)[C@@H]2OC(C)=O)cc1 [Diltiazem, (+)-Cis-5-[2-(dimethylamino)ethyl]-3-acetoxy-2,3-dihydro-2-(4-methoxyphenyl)-1,5-benzothiazepin-4(5H)-one, reference compound]
change in BP (systemic arterial pressure) ([3]; 0.35 μmol/kg i.v., 0.5 minutes): -21 mmHg
change in HR (heart rate) ([3]; 0.35 μmol/kg i.v., 0.5 minutes): -4 bpm
change in LVP (left intraventricular pressure) ([3]; 0.35 μmol/kg i.v., 0.5 minutes): -18 mmHg
change in dp/dt ([3]; 0.35 μmol/kg i.v., 0.5 minutes): -150 mmHg/sec
change in BP (systemic arterial pressure) ([3]; 0.35 μmol/kg i.v., 2 minutes): -1 mmHg
change in HR (heart rate) ([3]; 0.35 μmol/kg i.v., 2 minutes): +6 bpm
change in LVP (left intraventricular pressure) ([3]; 0.35 μmol/kg i.v., 2 minutes): -1 mmHg
change in dp/dt ([3]; 0.35 μmol/kg i.v., 2 minutes): -25 mmHg/sec
change in BP (systemic arterial pressure) ([3]; 0.35 μmol/kg i.v., 10 minutes): +6 mmHg
change in HR (heart rate) ([3]; 0.35 μmol/kg i.v., 10 minutes): +10 bpm
change in LVP (left intraventricular pressure) ([3]; 0.35 μmol/kg i.v., 10 minutes): +2 mmHg
change in dp/dt ([3]; 0.35 μmol/kg i.v., 10 minutes): -17 mmHg/sec
change in BP (systemic arterial pressure) ([3]; 0.35 μmol/kg i.v., 20 minutes): +1 mmHg
change in HR (heart rate) ([3]; 0.35 μmol/kg i.v., 20 minutes): +3 bpm
change in LVP (left intraventricular pressure) ([3]; 0.35 μmol/kg i.v., 20 minutes): -5 mmHg
change in dp/dt ([3]; 0.35 μmol/kg i.v., 20 minutes): -183 mmHg/sec
effect on all observed parameters (in words) ([3]; 0.7 μmol/kg i.v.): significantly reduces all the observed parameters
effect on heart rate and contractility (in words) ([3]; 0.7 μmol/kg i.v.): significant cardiodepressive effect
change in BP (systemic arterial pressure) ([3]; 0.70 μmol/kg i.v., 0.5 minutes): -52 mmHg
change in HR (heart rate) ([3]; 0.70 μmol/kg i.v., 0.5 minutes): -83 bpm
change in LVP (left intraventricular pressure) ([3]; 0.70 μmol/kg i.v., 0.5 minutes): -46 mmHg
change in dp/dt ([3]; 0.70 μmol/kg i.v., 0.5 minutes): -658 mmHg/sec
change in BP (systemic arterial pressure) ([3]; 0.70 μmol/kg i.v., 2 minutes): -34 mmHg
change in HR (heart rate) ([3]; 0.70 μmol/kg i.v., 2 minutes): -99 bpm
change in LVP (left intraventricular pressure) ([3]; 0.70 μmol/kg i.v., 2 minutes): -24 mmHg
change in dp/dt ([3]; 0.70 μmol/kg i.v., 2 minutes): -375 mmHg/sec
change in BP (systemic arterial pressure) ([3]; 0.70 μmol/kg i.v., 10 minutes): -16 mmHg
change in HR (heart rate) ([3]; 0.70 μmol/kg i.v., 10 minutes): -5 bpm
change in LVP (left intraventricular pressure) ([3]; 0.70 μmol/kg i.v., 10 minutes): -4 mmHg
change in dp/dt ([3]; 0.70 μmol/kg i.v., 10 minutes): -108 mmHg/sec
change in BP (systemic arterial pressure) ([3]; 0.70 μmol/kg i.v., 20 minutes): +9 mmHg
change in HR (heart rate) ([3]; 0.70 μmol/kg i.v., 20 minutes): +7 bpm
change in LVP (left intraventricular pressure) ([3]; 0.70 μmol/kg i.v., 20 minutes): -7 mmHg
change in dp/dt ([3]; 0.70 μmol/kg i.v., 20 minutes): -92 mmHg/sec
IC25 ([2]; 25% reduction of contraction force, read-out: Contraction force pIC25 (converted)): 513 nM
IC25 ([2]; 25% reduction of contraction frequency, read-out: Frequency pIC25 (converted)): 355 nM
activity on force and frequency of the contractions (in words) [2]: significant activity
IC50 (isolated rat portal vein): 813 nM

COc1ccc([C@@H]2Sc3ccccc3N(CCN(C)C)C(=O)[C@@H]2OC(=O)/C=C/C(=O)O[C@H]2C(=O)N(CCN(C)C)c3ccccc3S[C@H]2c2ccc(OC)cc2)cc1 [Ia, 3,3'-[(2E)-(1,4-dioxo-1,4-butenediyl)-bis(oxy)]bis[(+)-cis-5-[2-(dimethylamino)ethyl]-2,3-dihydro-2-(4-methoxyphenyl)-1,5-benzothiazepin-4-(5H)-one]]
change in BP (systemic arterial pressure) ([3]; 0.35 μmol/kg i.v., 0.5 minutes): -32 mmHg
change in HR (heart rate) ([3]; 0.35 μmol/kg i.v., 0.5 minutes): -19 bpm
change in LVP (left intraventricular pressure) ([3]; 0.35 μmol/kg i.v., 0.5 minutes): -29 mmHg
change in dp/dt ([3]; 0.35 μmol/kg i.v., 0.5 minutes): -31 mmHg/sec
change in BP (systemic arterial pressure) ([3]; 0.35 μmol/kg i.v., 2 minutes): -16 mmHg
change in HR (heart rate) ([3]; 0.35 μmol/kg i.v., 2 minutes): -19 bpm
change in LVP (left intraventricular pressure) ([3]; 0.35 μmol/kg i.v., 2 minutes): -11 mmHg
change in dp/dt ([3]; 0.35 μmol/kg i.v., 2 minutes): -20 mmHg/sec
change in BP (systemic arterial pressure) ([3]; 0.35 μmol/kg i.v., 10 minutes): +2 mmHg
change in HR (heart rate) ([3]; 0.35 μmol/kg i.v., 10 minutes): -9 bpm
change in LVP (left intraventricular pressure) ([3]; 0.35 μmol/kg i.v., 10 minutes): -2 mmHg
change in dp/dt ([3]; 0.35 μmol/kg i.v., 10 minutes): -67 mmHg/sec
change in BP (systemic arterial pressure) ([3]; 0.35 μmol/kg i.v., 20 minutes): -8 mmHg
change in HR (heart rate) ([3]; 0.35 μmol/kg i.v., 20 minutes): -14 bpm
change in LVP (left intraventricular pressure) ([3]; 0.35 μmol/kg i.v., 20 minutes): -11 mmHg
change in dp/dt ([3]; 0.35 μmol/kg i.v., 20 minutes): -25 mmHg/sec
effect on heart rate and contractility (in words) ([3]; 0.7 μmol/kg i.v.): without altering the heart rate and contractility parameters
hypotensive activity (in words) ([3]; 0.7 μmol/kg i.v.): significant and lasting hypotensive activity
change in BP (systemic arterial pressure) ([3]; 0.70 μmol/kg i.v., 0.5 minutes): -32 mmHg
change in HR (heart rate) ([3]; 0.70 μmol/kg i.v., 0.5 minutes): -19 bpm
change in LVP (left intraventricular pressure) ([3]; 0.70 μmol/kg i.v., 0.5 minutes): -33 mmHg
change in dp/dt ([3]; 0.70 μmol/kg i.v., 0.5 minutes): -15 mmHg/sec
change in BP (systemic arterial pressure) ([3]; 0.70 μmol/kg i.v., 2 minutes): -33 mmHg
change in HR (heart rate) ([3]; 0.70 μmol/kg i.v., 2 minutes): -11 bpm
change in LVP (left intraventricular pressure) ([3]; 0.70 μmol/kg i.v., 2 minutes): -32 mmHg
change in dp/dt ([3]; 0.70 μmol/kg i.v., 2 minutes): -20 mmHg/sec
change in BP (systemic arterial pressure) ([3]; 0.70 μmol/kg i.v., 10 minutes): -22 mmHg
change in HR (heart rate) ([3]; 0.70 μmol/kg i.v., 10 minutes): -13 bpm
change in LVP (left intraventricular pressure) ([3]; 0.70 μmol/kg i.v., 10 minutes): -32 mmHg
change in dp/dt ([3]; 0.70 μmol/kg i.v., 10 minutes): -16 mmHg/sec
change in BP (systemic arterial pressure) ([3]; 0.70 μmol/kg i.v., 20 minutes): -25 mmHg
change in HR (heart rate) ([3]; 0.70 μmol/kg i.v., 20 minutes): -9 bpm
change in LVP (left intraventricular pressure) ([3]; 0.70 μmol/kg i.v., 20 minutes): -32 mmHg
change in dp/dt ([3]; 0.70 μmol/kg i.v., 20 minutes): -20 mmHg/sec
selectivity of action (in words) ([3]; conclusion from in vivo and in vitro results): selective action on the smooth vessel musculature
toxicity versus diltiazem, intraperitoneal (in words) [1]: less toxic than the reference product
toxicity versus diltiazem, oral (in words) [1]: less toxic
inhibition at 10 µM [2]: 5%
activation at 10 µM [2]: 6%
activity on force and frequency of the contractions (in words) [2]: virtually inactive; also recorded: free of the negative chronotropic and inotropic effects
selectivity, isolated vessels vs atria (in words) (isolated rat portal vein): selective activity on the isolated vessels
inhibition of contraction force (in words) (isolated rat portal vein): antagonize the contraction force in a dose-dependent manner; also recorded: significantly inhibit the contraction force
IC50 (isolated rat portal vein): 3980 nM
LD50 at 336 h (in vivo; ip): 250 mg/kg
LD50 at 336 h (in vivo; po): > 1500 mg/kg
